In PubChem BioAssay (NCI) one finds TGI and GI50 data, which are given here for eleven compounds.

Test systems include A549 NSCLC; BT-549 breast; HCT-116 colon; NCI-H226 lung; OVCAR-8 ovarian; SNB-75 CNS; SW-620 colon; T-47D breast; U251 CNS; UACC-62 melanoma.
What all share (assay): NCI tumour cell line growth inhibition, 48 h

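Dose response: 5 concentrations. Exposure: 48 h. Format: 96-well plates. Endpoint: linear interpolation; highest concentration if not reached. Abbreviation: GI50, concentration required for 50% inhibition of growth. TGI is the concentration that stops growth completely.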 *1 amine or outer side, *2 acyl side, *3 side chain or, on linkers, in order; H or OH if unused. Where a SMILES comes first, the peptide text is derived from it. [ ]: non-standard residue; d: D form. The star is where a group is joined. ξ: configuration not given here. X15 = CCN(CC)c1ccc2cc(N*)c(=O)oc2c1; dIva = CC[C@@](C)(N)C(=O)O; X14 = O=C(OCCN[*:1])[*:2]; Aib = CC(C)(N)C(=O)O; ξP = O=C(O)C1CCCN1; βAla = NCCC(=O)O Where only a bound is given, the exact number is not on record here.

As for `COC(=O)C(F)C(Br)C(=O)OC` (centres undefined), the TGI came to 39.1 µM with A549 NSCLC; 31 µM with BT-549 breast; 6.09 µM in the test with HCT-116 colon; 43.4 µM in the test on NCI-H226 lung; 12.6 µM in the test with OVCAR-8 ovarian; 31 µM in the test on SNB-75 CNS. The TGI came out at 4.56 µM in the test on SW-620 colon, 6.63 µM in the test on T-47D breast, 9.84 µM in the test with U251 CNS and 30.4 µM with UACC-62 melanoma.

For the compound `O=C(OCCBr)c1ccc(Cl)c([N+](=O)[O-])c1`, the GI50 with A549 NSCLC is 17.7 µM; with BT-549 breast, 18.1 µM; in the test on HCT-116 colon, 14.3 µM; in the test with NCI-H226 lung it was 17.7 µM; with OVCAR-8 ovarian, 17.3 µM; in the test with SNB-75 CNS, 5.63 µM. For the same compound, the GI50 in the test with SW-620 colon is 14.6 µM; in the test with T-47D breast, 2.29 µM; in the test on U251 CNS, 1.71 µM; in the test on UACC-62 melanoma, 14.5 µM. Further, the TGI is 35.4 µM in the test on A549 NSCLC; 33.1 µM in the test on BT-549 breast; 30.4 µM in the test with HCT-116 colon; 37.6 µM in the test on NCI-H226 lung; 35.2 µM in the test with OVCAR-8 ovarian; 12.2 µM with SNB-75 CNS. The TGI was found to be 30.2 µM in the test with SW-620 colon, 5.49 µM in the test with T-47D breast, 3.2 µM with U251 CNS and 28.5 µM in the test on UACC-62 melanoma.

As to `Nc1n[nH]c2ccc([C@@H]3Nc4ccc5[nH]ncc5c4[C@H]4C5C=CC(C5)[C@@H]34)cc12` (some centres undefined), the GI50 was 0.444 µM with A549 NSCLC; 0.32 µM with BT-549 breast; 0.351 µM in the test with HCT-116 colon; 0.636 µM in the test with NCI-H226 lung; 0.563 µM with OVCAR-8 ovarian; 0.176 µM in the test on SNB-75 CNS. Also, the GI50 in the test on SW-620 colon was 0.367 µM; with T-47D breast, 10.9 µM; in the test on U251 CNS, 0.433 µM; in the test on UACC-62 melanoma it was 0.213 µM. For the same compound, the TGI in the test with A549 NSCLC is more than 85.2 µM; in the test on BT-549 breast, 7.05 µM; in the test with HCT-116 colon, 3.33 µM; in the test on NCI-H226 lung, 10.6 µM; with OVCAR-8 ovarian it was more than 89.5 µM; in the test on SNB-75 CNS, 24.8 µM. The TGI is 40.4 µM with SW-620 colon, 77.1 µM in the test on T-47D breast, 22.2 µM in the test on U251 CNS and 18.5 µM with UACC-62 melanoma.

Consider `O=C(N/N=C/c1cc([N+](=O)[O-])ccc1O)c1cccc2ccccc12`, for which the GI50 with A549 NSCLC was 4.56 µM; in the test with BT-549 breast, 1.63 µM; in the test on HCT-116 colon it was 2.56 µM; in the test on NCI-H226 lung it was 2.45 µM; in the test with OVCAR-8 ovarian, 2.88 µM; in the test on SNB-75 CNS, 6.2 µM. The GI50 was 3.7 µM in the test with SW-620 colon, 3.28 µM in the test with T-47D breast, 2.46 µM in the test on U251 CNS and 2.98 µM in the test with UACC-62 melanoma. Further, the TGI was more than 100 µM with A549 NSCLC; 23.7 µM with BT-549 breast; more than 100 µM with HCT-116 colon; 11.5 µM with NCI-H226 lung; more than 100 µM with OVCAR-8 ovarian; 44.7 µM in the test with SNB-75 CNS. Besides, the TGI in the test on SW-620 colon was more than 100 µM; with T-47D breast it was 23.3 µM; with U251 CNS, 64.1 µM; in the test with UACC-62 melanoma it was 26.4 µM.

With `CCN1C(=O)N(CC)C2C1NN=c1s/c(=C\c3cc4ccccc4[nH]3)c(=O)n12` (centres undefined), the GI50 in the test with A549 NSCLC is 0.0433 µM; with BT-549 breast, 0.0178 µM; in the test on HCT-116 colon, less than 0.01 µM; with NCI-H226 lung, 0.186 µM; in the test with OVCAR-8 ovarian, less than 0.0191 µM; in the test with SNB-75 CNS, less than 0.0149 µM. Besides, the GI50 in the test with SW-620 colon is 0.0277 µM; with T-47D breast, 0.0348 µM; in the test on U251 CNS, 0.0383 µM; with UACC-62 melanoma, less than 0.0111 µM. Further, the TGI in the test with A549 NSCLC was more than 100 µM; with BT-549 breast, 16 µM; in the test on HCT-116 colon it was more than 37.2 µM; in the test on NCI-H226 lung, 61.6 µM; in the test on OVCAR-8 ovarian, 31.3 µM; with SNB-75 CNS, 0.641 µM. Moreover, the TGI with SW-620 colon was more than 100 µM; in the test with T-47D breast, 5.94 µM; in the test on U251 CNS it was 17.4 µM; with UACC-62 melanoma it was 7.83 µM.

For `CC(C)(C#N)c1cc(C(=O)Nc2cc(Nc3ncccc3-c3ncnc4nc[nH]c34)ccc2F)cc(C(F)(F)F)c1`, the TGI was more than 10 µM in the test on A549 NSCLC; more than 2.3 µM in the test with BT-549 breast; more than 2.35 µM with HCT-116 colon; more than 6.4 µM in the test with NCI-H226 lung; more than 10 µM in the test with OVCAR-8 ovarian; more than 10 µM with SNB-75 CNS. The TGI is more than 10 µM in the test on SW-620 colon, more than 3.23 µM in the test on T-47D breast, more than 10 µM in the test on U251 CNS and 0.788 µM in the test with UACC-62 melanoma. Further, the GI50 in the test on HCT-116 colon was 0.242 µM; in the test on NCI-H226 lung, 0.289 µM; in the test with SW-620 colon, 0.58 µM; with UACC-62 melanoma, 0.0871 µM.

For the compound `CS(=O)(=O)Nc1ccc(N=Cc2c(O)[nH]c3ccccc23)cc1`, the GI50 with A549 NSCLC, in the test with BT-549 breast, in the test on HCT-116 colon, in the test on NCI-H226 lung, in the test with OVCAR-8 ovarian and in the test on SNB-75 CNS was more than 25 µM in each case. Further, the GI50 in the test with SW-620 colon, in the test with T-47D breast, in the test with U251 CNS and in the test with UACC-62 melanoma was more than 25 µM throughout. In addition, the TGI in the test with A549 NSCLC, in the test on BT-549 breast, in the test on HCT-116 colon, in the test with NCI-H226 lung, in the test with OVCAR-8 ovarian and with SNB-75 CNS was more than 25 µM each time. The TGI with SW-620 colon, with T-47D breast, in the test with U251 CNS and in the test with UACC-62 melanoma was more than 25 µM each time.

Consider `COc1ccc(/C=C2\CCC(CN(C)C)C2=O)cc1OC` (centres undefined), for which the TGI in the test with A549 NSCLC worked out at 37.4 µM; with BT-549 breast, 14.3 µM; in the test on HCT-116 colon, 7.01 µM; in the test on NCI-H226 lung it was 28.2 µM; in the test on OVCAR-8 ovarian, 8.25 µM; in the test with SNB-75 CNS, 30.5 µM. The TGI in the test with SW-620 colon was found to be 4.44 µM; with T-47D breast, 44.5 µM; with U251 CNS it was 30.8 µM; with UACC-62 melanoma, 12.7 µM.

For `COc1ccc2c(c1)C(C)Cc1c(Cl)nc(C)nc1N2C` (centres undefined), the GI50 is 3 µM in the test on A549 NSCLC; 2.22 µM in the test on BT-549 breast; 1.84 µM in the test on HCT-116 colon; 5.83 µM in the test with NCI-H226 lung; 3.58 µM in the test on OVCAR-8 ovarian; 1.94 µM in the test on SNB-75 CNS. Moreover, the GI50 with SW-620 colon was 2.45 µM; in the test on T-47D breast it was 3.43 µM; with U251 CNS, 3.15 µM; with UACC-62 melanoma it was 0.665 µM. Besides, the TGI in the test with A549 NSCLC turned out to be 24.4 µM; in the test with BT-549 breast, 12.3 µM; with HCT-116 colon it was 16.4 µM; in the test with NCI-H226 lung, 40.3 µM; in the test on OVCAR-8 ovarian, 15.4 µM; in the test with SNB-75 CNS, 9.04 µM. Further, the TGI in the test with SW-620 colon is 24.4 µM; with T-47D breast, more than 100 µM; in the test with U251 CNS, 15.9 µM; in the test on UACC-62 melanoma, 36.2 µM.

As for `CCN(CC)c1ccc2cc(NC(=O)OCCNC(=O)CCNC(=O)[C@H](CC(C)C)NC(=O)C(C)(C)NC(=O)C(C)(C)NC(=O)[C@H](CC(C)C)NC(=O)CCNC(=O)C(C)(C)NC(=O)[C@H](CC(C)C)NC(=O)CCNC(=O)[C@@](C)(CC)NC(=O)[C@H](C)NC(=O)CCNC(=O)C(C)(C)NC(=O)[C@H](C)NC(=O)[C@@H]3CCCN3C(=O)[C@@](C)(CC)NC(=O)[C@H](Cc3ccccc3)NC(=O)C3CCCN3C(=O)C(C)(C)NC(=O)C3CCCN3C(=O)C(C)(C)NC(C)=O)c(=O)oc2c1` (some centres undefined) (Ac-[Aib][ξP][Aib][ξP]F[dIva]PA[Aib][βAla]A[dIva][βAla]L[Aib][βAla]L[Aib][Aib]L[βAla][X14]-X15), the GI50 is 0.00354 µM in the test on A549 NSCLC; 0.00367 µM in the test with BT-549 breast; 0.0035 µM in the test on HCT-116 colon; 0.00561 µM with NCI-H226 lung; 0.005 µM in the test on OVCAR-8 ovarian; 0.00254 µM in the test with SNB-75 CNS. Moreover, the GI50 in the test on SW-620 colon was 0.0048 µM; in the test with T-47D breast, 0.00302 µM; with U251 CNS it was 0.00317 µM; with UACC-62 melanoma, 0.00385 µM. Besides, the TGI with A549 NSCLC is 0.115 µM; in the test on BT-549 breast it was 0.022 µM; with HCT-116 colon, 0.0455 µM; in the test with NCI-H226 lung, 0.0348 µM; with OVCAR-8 ovarian, 0.0939 µM; in the test on SNB-75 CNS, 0.0242 µM. Besides, the TGI in the test with SW-620 colon turned out to be 0.102 µM; in the test on T-47D breast, 0.0143 µM; in the test on U251 CNS, 0.0162 µM; with UACC-62 melanoma it was 0.0189 µM.

Consider `COCCNc1cc(NC(=O)N2CCCc3cc(CN4CCN(C)CC4=O)c(C=O)nc32)ncc1C#N`, for which the GI50 is more than 50 µM in the test on A549 NSCLC; more than 50 µM in the test on BT-549 breast; 25.6 µM in the test on HCT-116 colon; more than 50 µM in the test on NCI-H226 lung; more than 50 µM with OVCAR-8 ovarian; 16 µM in the test with SNB-75 CNS. Moreover, the GI50 is more than 50 µM in the test with SW-620 colon, 46.5 µM in the test with T-47D breast, more than 50 µM with U251 CNS and more than 50 µM in the test on UACC-62 melanoma. For the same compound, the TGI with A549 NSCLC, in the test on BT-549 breast, in the test on HCT-116 colon, in the test on NCI-H226 lung, with OVCAR-8 ovarian and with SNB-75 CNS was more than 50 µM each time. Moreover, the TGI in the test on SW-620 colon, with T-47D breast, with U251 CNS and in the test with UACC-62 melanoma was more than 50 µM each time.
